From patent publication US8039456B2, “Method of stimulating the motility of the gastrointestinal system using ipamorelin” (Helsinn Therapeutics (U.S.), Inc., priority 2004, dated 2011)
Like-named read-outs stand apart in the source and are kept apart here. Square brackets hold non-standard residues; d marks the D form. Ends that are not written are not given here. Peptide text beside a SMILES is read from it. d2Nal = N[C@H](Cc1ccc2ccccc2c1)C(=O)O; Aib = CC(C)(N)C(=O)O

Tests used:
[1] = test system: rat model of post-operative ileus; assay: Gastric emptying (phenol red) after i.v. injection, ipamorelin compared to RC-1139, rat model of post-operative ileus (Example 5); format: in vivo; details: 10 mg/kg i.v.; for lethality: n = 2
Protocol: Ipamorelin was evaluated in a rat model of post-operative ileus in comparison to RC-1139, a ghrelin mimetic with known gastrokinetic efficacy. Treatment groups were as follows.
All animals were examined twice daily for mortality and signs of ill health or reaction to treatment (except on the day of arrival and necropsy when the animals were examined once). Individual body weights were measured at randomization and on the day prior to dosing (for dose calculation purposes only).
All treatment procedures were replicated over two consecutive days with approximately equal numbers of animals from each group treated on each day. Food was withdrawn from animals overnight prior to surgery. On the day of surgery animals were anesthetized with isoflurane gas and a bland ophthalmic lubricant was applied to each eye. The animals were prepared for surgery by shaving of the entire abdominal region. The shaved area was cleaned and disinfected appropriately prior to incision. Using a scalpel blade, the abdomen was opened and the cecum localized. The cecum was exteriorized and manipulated for approximately one minute (i.e. gently patted between hands in saline-soaked gauze). Thereafter, the cecum was repositioned and the surgical site closed using absorbable suture material (interrupted sutures) and staples. Animals were then returned to their home cage to permit recovery from the anesthesia.
Animals were dosed immediately following the oral gavage dose of phenol red. The test/control articles and reference article were administered by intravenous injection (given as a slow bolus injection over a period of ca. 100 seconds) into the tail vein using a syringe and appropriate gauge needle. The dose volume was 5 mL/kg and the actual dose administered was based on the most recent body weight of each animal.
Prior to dosing of the phenol red, the animals were water deprived. At approximately 30 minutes post-surgery, animals received 0.4 mL of phenol red by oral gavage, then dosed with the test article, and then, approximately 30 minutes later, were euthanized. […]

[2] = Prior Phase 1 studies, safety and tolerability; format: in vivo, humans; details: 0.06 mg/kg IV infused over 15 minutes
Protocol: Ipamorelin was formulated as a 0.5 mg/mL sterile solution with 2 equivalents of acetic acid in normal saline. The sterile solution was further diluted with normal saline to an appropriate volume for administration prior to use.

[3] = Johansen et al. 1998; cited from earlier work
Half-life in humans = format: in vivo
[4] = test system: gastrointestinal motility in rats; assay: Gastrointestinal motility in rats by charcoal transit, equimolar i.v. dose (Example 9); format: in vivo, rat; details: single intravenous dose of 75 μmoles/kg
From the text: The objective of this study was to evaluate the pharmacological effects of a series of ghrelin mimetics on gastrointestinal motility in rats, as measured by charcoal transit, relative to control, following a single intravenous infusion of the experimental agent.
Dosing commenced on consecutive days with approximately equal numbers of animals from each group being dosed on each day. The animals were food deprived overnight prior to treatment. Prior to dosing, the animals were water deprived. The test/reference/positive control articles were administered by intravenous injection into the tail vein using a syringe and appropriate gauge needle. […]
At the end of the observation period, the rats were euthanized and the abdominal cavity was opened and the stomach and intestines were removed. […] The stomachs were weighed (with and without contents) and this was recorded to give an indication of gastric emptying. […] The charcoal was located and the distances from the pyloric sphincter to the most proximal and distal traces of charcoal were measured and recorded, as well as the total distance from the pyloric sphincter to the cecum (all distances were measured in mm). In addition to the stomachs weights (with and without contents) the distance traveled by the charcoal as a percentage of the total length of the small intestine was recorded to give an indication of the gastric emptying. […]

[5] = test system: morphine-induced gastric ileus in rats; assay: Morphine-induced gastric ileus in rats, phenol red gastric emptying (Example 4); format: in vivo, rat
Protocol: Treatment groups were set up as follows.
The dose volume was 0.1 mL/kg for Groups 2 and 3 and 0.4 mL/kg for Groups 4 and 5. The actual dose administered was based on the most recent practical body weight of each animal.
Approximately 30 minutes following administration of control or test article, the rats were euthanized. The stomach was then exposed by laparotomy, quickly ligated at the pylorus and the cardia and removed. The stomach was cut open and its contents extracted with 100 mL of 0.1N NaOH. The phenol red content of this extract was assayed […] at 558 nm in a spectrophotometer. Following collection, samples were stored on wet ice pending transfer for analysis.

[6] = cited from earlier work
[7] = test system: gastrointestinal motility in rats; assay: Gastrointestinal motility in rats by charcoal transit, 0.25 mg/kg i.v. (Example 8); format: in vivo, rat; details: for reduction of the amount of charcoal remaining in the stomach relative to the control group: 0.25 mg/kg i.v.
Protocol: The objective of this study was to evaluate the pharmacological effects of a series of ghrelin mimetics on gastrointestinal motility in rats, as measured by charcoal transit, relative to a commonly used prokinetic agent, metoclopramide, and control, following a single intravenous infusion of the experimental agent. Each dosing formulation was prepared on the day of dosing. […] The reference article formulations were also prepared on the day of dosing by mixing the appropriate amount of reference article with the appropriate volume of vehicle to achieve the desired final concentration. The saline and metoclopramide (1 mg/mL) were used as supplied. Dosing was performed on consecutive days with approximately equal numbers of animals being dosed on each day. The animals were deprived of food overnight prior to treatment. Each formulation was administered by intravenous injection into the tail vein using a syringe and appropriate gauge needle. The dose volume was 5 mL/kg or 10 mL/kg (in the case of metoclopramide only). […] Following the observation period the rats were euthanized, the abdominal cavity opened, and the stomach and intestines removed. The presence or absence of charcoal was documented. The stomachs were weighed (with or without contents) to give an indication of gastric emptying. The intestines were opened and extended to their full length. The charcoal was located and the distances from the pyloric sphincter to the most proximal and distal traces of charcoal were measured as was the total distance from the pyloric sphincter to the cecum. Also, the distance traveled by the charcoal as a percentage of the total length of the small intestine was measured.

[8] = cited from earlier work; remark: listed apart in the source
rat model of POI = assay: Rat model of POI (running of the bowel), single dose (Example 10, series 1); format: in vivo
From the text: Animals: Adult male Sprague-Dawley rats with indwelling catheters implanted in the right jugular vein were obtained from Charles River (Wilmington, Mass.). The initial body weight of the animals was 250-270 g. The catheters were maintained patent during the acclimation and were used for the dosing of ipamorelin or vehicle. An additional group of control rats, not subjected to surgery and drug or vehicle treatment, were purchased with an indwelling catheter implanted into the proximal colon (1-2 cm from the cecum) used for infusion of a dye marker measuring colonic transit. All rats were single-housed under controlled conditions (25° C., 12 h light/dark cycle) with free access to food and water. An acclimation period of at least one week was allowed prior to the experiments. • Induction of post-operative ileus (POI): POI was induced by a surgical procedure described as “running of the bowel” (Kalff et al., 1998). Specifically, rats were anesthetized with isoflurane (2-3%) inhalation, the abdomen was shaved, disinfected and a midline incision was made to expose the viscera. The small intestine and the cecum were exteriorized and inspected for 5 min using cotton applicators soaked in sterile saline. After completing the inspection, the intestine was covered with gauze soaked in saline and the abdomen remained open for additional 10 min. To study colonic transit, 200 μl of a non-absorbable dye marker (trypan blue in saline) was injected into the proximal colon (1 cm distal to the cecum). The incision was then closed with silk sutures. The whole procedure lasted 25-30 min. Surgeries were always performed at 6:00-8:00 AM and the animals received ipamorelin or vehicle treatment during the light phase of the light/dark cycle. • Measurement of colonic transit time: Prior to the experiments, the rats were fasted for 20-22 h with free access to water. […] Colonic transit time was evaluated as the period between the end of surgery and the appearance of dye in the fecal pellet. […] The cumulative fecal output was evaluated by adding the number of pellets throughout a 48-h post-surgical period. Food intake was recorded at 3-h interval or 12-h intervals according to the experimental design and was normalized as g/100 g body weight. The cumulative food intake was calculated for 48 h post-surgery in both series of experiments. Body weight was measured daily at 8:00-9:00 AM before fasting the animals, on the day of experiment before the surgery and at 24 h and 48 h post-surgery. Changes in body weight are expressed as body weight gain compared to the weight of the fasted animal taken before the surgery. • Test and control articles: The test compound ipamorelin (free base) was converted to the diacetate salt by mixing with 2 molar equivalents of glacial acetic acid. […]

[9] = 50 μg/kg i.v. after 1 mg/kg morphine
[10] = single dose i.v., first 48 h post-surgery

Compound: CN(C(=O)/C=C/CC(C)(C)N)[C@H](Cc1ccc(-c2ccccc2)cc1)C(=O)N(C)[C@H](Cc1ccccc1)C(=O)N1CCC(O)CC1 [RC-1139]
- stomach content of the phenol red marker lower than that of the control group [1]: approximately 16%

Compound: CC(C)(N)C(=O)N[C@@H](Cc1c[nH]cn1)C(=O)N[C@H](Cc1ccc2ccccc2c1)C(=O)N[C@H](Cc1ccccc1)C(=O)N[C@@H](CCCCN)C(N)=O [ipamorelin, α-Methylalanine-L-histidine-D-β-(2-naphthyl)-alanine-D-phenylalanine-L-lysinamide] (H-[Aib]H[d2Nal][dF]K-NH2)
- safety and tolerability in prior Phase 1 studies [2]: safe and well-tolerated
- half-life in the rat [3]: 30 to 60 min
- half-life in humans (Half-life in humans): approximately six
- half-life (Half-life in humans; human, serum): 180 to 390 min
- lethality [1]: Two animals died immediately
- lethality ([1]; listed as Ipamorelin): *Lethality was observed immediately following administration of a 10 mg/kg dose (n = 2) and consequently the dose level was reduced to 0.25 mg/kg for all remaining animals in Group 4

Compound: ghrelin: 28-amino acid peptide that is produced in the stomach; potent prokinetic peptide known to reverse gastric ileus (GSSFLSPEHQRVQQRKESKKPPAKLQPR; ends and bridges not checked; UniProt Q9UBU3 24-51, looked up)
- intestinal transit, proximal distance traveled by the charcoal from the pyloric sphincter [4]: resulted in gastric emptying by one of the two measures
- acceleration of stomach emptying compared to animals treated with 1 mg/kg morphine and saline [5, 9]: approximately 37%
- reversal of the ileus induced [5, 9]: approximately 11%
- gastric emptying in rats administered 4 mg/kg of morphine ([5]; 50 μg/kg i.v. after 4 mg/kg morphine): did not accelerate gastric emptying
- group mean absorbance of phenol red ([5]; 50 μg/kg i.v. after 4 mg/kg morphine, saline group 2.99): 3.01
- half-life in humans [6]: approximately 10 minutes
- reduction of the amount of charcoal remaining in the stomach relative to the control group [7]: 57%
- serum half-life ([8]; biologically active (acylated) form, Akamizu et al. 2004): 9 to 13 min

Compound: CCN(CC)CCNC(=O)c1cc(Cl)c(N)cc1OC [metoclopramide]
- increase of distal distance traveled by the charcoal meal versus control ([7]; 10 mg/kg i.v.): 29%
- stomach charcoal content versus control group ([7]; 10 mg/kg i.v.): not significantly different
- distal distance traveled by the charcoal meal ([7]; 10 mg/kg i.v., control group 67.3%): 86.9%

Compound: CN1CC[C@]23c4c5ccc(O)c4O[C@H]2[C@@H](O)C=C[C@H]3[C@H]1C5 [morphine]
- reduction of stomach emptying compared to the control animals ([5]; 1 or 4 mg/kg subcutaneous): approximately 42%

Compound: GHRP-6
- intestinal transit, proximal distance traveled by the charcoal from the pyloric sphincter [4]: resulted in gastric emptying by one of the two measures
- reduction of the amount of charcoal remaining in the stomach relative to the control group [7]: 64%
- body weight gain (rat model of POI; [10]): neither ipamorelin nor GHRP-6 had a significant effect
- fecal pellet output (rat model of POI; [10]): neither ipamorelin nor GHRP-6 had a significant effect
- food intake (rat model of POI; [10]): neither ipamorelin nor GHRP-6 had a significant effect
- colonic transit time (rat model of POI; single post-surgical dose of 20 μg i.v.): significantly decreased
- serum half life ([8]; Bowers et al. 1992): 20 min
